Experimental findings from patent publication US4202877A, “Antidermatomycotic agent” (Kureha Kagaku Kogyo Kabushiki Kaisha, priority 1977, dated 1980) are described below.

A short description of series [1]: Subacute toxicity, daily administration over 3 months. In kind it is in vivo, mice. The note with it: every day over 3 months, oral 100 mg/kg and percutaneous 250 mg/kg, respectively. Here is the method:
Further, in order to determine the subacute toxicity of the present substance, it was administered to mice every day over 3 months via an oral and a percutaneous routes using the dosage of 100 mg/kg and 250 mg/kg, respectively.

Series [2] is described as follows: Antimicrobial activity of synthesized versus extracted substance. Conditions: synthesis method vs extraction method.
The nature of the next series: Solubility. Format: physicochemical.
Series [3] has as its system Trichophyton mentagrophytes. Briefly: Antimicrobial spectrum, minimum growth inhibiting concentration (MIC). Conditions: 72 h, Sabouraud's medium pH 5 to 6, 25° C., 3 days. Format: cell-based. The protocol:
(§1) The antimicrobial spectrum was determined using Sabouraud's medium. Three hundred milligrams of o-methoxycinnamaldehyde was dissolved in 15 ml of methanol and diluted to give solutions with different concentrations. An aliquot of 0.1 ml of the solutions was charged into a test tube. Each 10 ml of the sterilized Sabouraud's medium of pH of 5 to 6 was charged into each of the above-mentioned test tube and well mixed with the solution of the present substance. A variety of microbial species were provided and each species was suspended in a physiological salt solution in an amount of 10^5 /ml.

The next series deals with Candida albicans. Described as above. In kind it is cell-based. The note with it: 72 h, Sabouraud's medium pH 5 to 6, 25° C., 3 days. Here is the method: as §1
The subject of another series is Trichophyton rubrum. The series is described as above. The note with it: 72 h, Sabouraud's medium pH 5 to 6, 25° C., 3 days. Format: cell-based. The protocol:
as §1

For the next series, the system named is Escherichia coli. The description is as above. The note with it: 72 h, Sabouraud's medium pH 5 to 6, 25° C., 3 days. Format: cell-based. The protocol: as §1
A further series has as its system Microsporum canis. The description is as above. In kind it is cell-based. The note with it: 72 h, Sabouraud's medium pH 5 to 6, 25° C., 3 days. Here is the method: as §1
The subject of another series is Aspergillus niger. The description is as above. The note with it: 72 h, Sabouraud's medium pH 5 to 6, 25° C., 3 days. In kind it is cell-based. The protocol: as §1
The test system of the next series is Microsporum gypseum. The series is described as above. Format: cell-based. Conditions: Nannizzia gypsea, 72 h; Sabouraud's medium pH 5 to 6, 25° C., 3 days. The protocol:
as §1

The subject of another series is Staphylococcus aureus. Described as above. In kind it is cell-based. The note with it: 72 h, Sabouraud's medium pH 5 to 6, 25° C., 3 days. The protocol: as §1
A further series deals with Cryptococcus neoformans. The series is described as above. In kind it is cell-based. The note with it: 72 h, Sabouraud's medium pH 5 to 6, 25° C., 3 days. The protocol:
as §1

For the next series, the system named is Aspergillus fumigatus. The description is as above. Format: cell-based. Conditions: 72 h, Sabouraud's medium pH 5 to 6, 25° C., 3 days. The protocol: as §1
Series [4] is described as follows: Acute toxicity (LD50, mortality one week after administration, Litchfield-Wilcoxon; autopsy after oral administration). Format: in vivo, ICR-JCL female mice. Conditions: for LD50 at 168 h: mouse, in vivo, mice, 10 tested, one week after administration. From the text: Ortho-methoxycinnamaldehyde was suspended in a mixed sulution of 1 part of Tween (mfd. Atlas Powder Co.) and 2 parts of a physiological salt solution. Commercially available ICR-JCL female mice (with a body weight of 22±1 g) were used for the toxicity tests, in which the mice were divided into groups, one being subjected to the percutaneous administration (p.c.) and the other group subjected to the oral administration (p.o.) and, one week after the administration their mortality was observed.

The mark [5] stands for this setting: one week after oral administration.

Molecules are shown by their SMILES. Converted amounts (≈) assume the structure as drawn.

For the molecule `COc1ccccc1C=CC=O` [o-methoxycinnamaldehyde], the “Death or abnormal symptom (subacute toxicity)” value in series [1] is on record as “neither death nor abnormal symptom was observed”. Besides, the “Antimicrobial activity of substance obtained by synthesis compared with that obtained by extraction” value in [2] is “identical in physical properties and antimicrobial activity to that obtained from the extraction method”. Besides, the “Solubility in methanol, ethanol, acetone, benzene and chloroform” value in “Solubility” (methanol, ethanol, acetone, benzene and chloroform) is “Soluble in methanol, ethanol, acetone, benzene and chloroform”. In the series “Solubility” (water), the Solubility in water entry was “insoluble in water”. In addition, the MIC came to 12.5 µg/mL (≈ 77.1 µM) in series [3]; 50 µg/mL (≈ 308 µM) with Candida albicans; 12.5 µg/mL (≈ 77.1 µM) in the series with Trichophyton rubrum; 60 µg/mL (≈ 370 µM) with Escherichia coli; 6.25 µg/mL (≈ 38.5 µM) against Microsporum canis; 200 µg/mL (≈ 1230 µM) against Aspergillus niger. Besides, the MIC with Microsporum gypseum was found to be 25 µg/mL (≈ 154 µM); against Staphylococcus aureus, 50 µg/mL (≈ 308 µM); against Cryptococcus neoformans, 12.5 µg/mL (≈ 77.1 µM); against Aspergillus fumigatus, 100 µg/mL (≈ 617 µM). In addition, the median lethal dose (LD50) at 168 h in series [4] (topical or ocular, percutaneous (p.c.)) turned out to be 8670 mg/kg; in series [4] (oral (p.o.)) it was 4430 mg/kg. Besides, the “Autopsy findings in appearance and visceral observation” value in [4] (setting [5]) was “no specific abnormal finding was obtained in appearance and also in visceral observation”. Besides, in series [4] (setting [5]), the Toxic symptom result is “no specific toxic sympton was observed”.

By MIC is commonly meant the lowest concentration that inhibits growth of the organism. A higher MIC goes with weaker potency. As a reminder, the LD50 is the dose expected to kill half of the subjects tested.
